Assay results published in patent US20200054660A1, “DNA M[…] FOR T-CELL IMMUNOTHERAPY” (priority 2016, published 2020).

Test system: virus-specific CD8 T cells
Design: species or system mice
Details: mouse, in vivo

Nc1ncn([C@H]2C[C@H](O)[C@@H](CO)O2)c(=O)n1 [DAC, 5-aza-2′-deoxycytidine]
Ki67+ virus-specific CD8 T cells: significant increase | T cell expansion: did not observe an enhancement | expansion of virus-specific T cells in spleen, lungs and liver: enhanced expansion | quantity of gp33-specific CD8 T cells in the peripheral blood: striking increase
